The text below walks through data of ChEMBL document CHEMBL5576059, “Design, synthesis and molecular docking study of novel triazole-quinazolinone hybrids as antimalarial and antitubercular agents” (Bioorg Med Chem Lett, 2024).

The subject of data set [1] is Plasmodium falciparum. Put plainly: Antimalarial activity against Plasmodium falciparum assessed as inhibition of parasite growth. It counts as functional, organism-based.
Data set [2] has as its system RAW264.7. Put plainly: Cytotoxicity against mouse RAW264.7 cells at 25 microg/ml by MTT assay. It counts as toxicity, cell-based. The following applies: dose 25 µg/ml. Background: Tetrazolium assays rely on reduction of a dye to a coloured formazan, in cell work by metabolically active cells.
In data set [3] the test system is Mycobacterium tuberculosis. Put plainly: Antitubercular activity against Mycobacterium tuberculosis H37RV ATCC27294 assessed as inhibition of bacterial growth by MABA assay. It counts as functional. On the technique in general: Alamar Blue is a resazurin reagent that responds to reducing activity.
Data set [4] in a line: Cytotoxicity against mouse RAW264.7 cells assessed as inhibition of cell growth at 66.37 uM by MTT assay relative to control. It counts as toxicity, cell-based.
Data set [5] in a line: Cytotoxicity against mouse RAW264.7 cells assessed as inhibition of cell growth at 78.29 uM by MTT assay relative to control. In kind it is toxicity, cell-based.
A short description of data set [6]: Cytotoxicity against mouse RAW264.7 cells assessed as inhibition of cell growth at 81.35 uM by MTT assay relative to control. It counts as toxicity, cell-based.

SMILES strings stand for the structures. Converted amounts (≈) assume the structure as drawn.

What is called IC50 is the point on the concentration scale where inhibition reaches its midpoint. By MIC is commonly meant the least concentration at which growth counts as inhibited. `O=c1[nH]c(-c2cn(-c3ccccc3)nn2)nc2ccccc12`: the IC50 in data set [1] is 2560 nM. Moreover, in data set [2], the Activity entry is “Non-Toxic”. Besides, the MIC in data set [3] is more than 86.4 µM.
A word on the inhibition: it is the drop in the measured response relative to a control, in per cent. Regarding `O=c1[nH]c(-c2cn(-c3ccc(Br)cc3)nn2)nc2ccccc12`, the concentration for half-maximal inhibition (IC50) in data set [1] turned out to be 1960 nM. The inhibition at 66.37 µM in data set [4] worked out at 29.8%. Further, the MIC in data set [3] came to 33.2 µM (≈ 12.2 µg/mL).
`O=c1[nH]c(-c2cn(-c3ccc([N+](=O)[O-])cc3)nn2)nc2ccccc12`: in data set [1], the IC50 came out at 1970 nM. In data set [2], the Activity result was “Non-Toxic”. Besides, the MIC in data set [3] is 74.8 µM (≈ 25 µg/mL).
Turning to `Cc1cc(C)c(-n2cc(-c3nc4ccccc4c(=O)[nH]3)nn2)c(C)c1`, the IC50 in data set [1] turned out to be 2900 nM. For the same compound, in data set [2], the Activity entry is on record as “Non-Toxic”. Also, the MIC in data set [3] was more than 75.4 µM.
As to `Cc1ccc(-n2cc(-c3nc4ccccc4c(=O)[nH]3)nn2)c([N+](=O)[O-])c1`, the IC50 in data set [1] is 2350 nM. For the same compound, the Activity entry in data set [2] is recorded as “Non-Toxic”. Further, the MIC in data set [3] was more than 71.8 µM.
On the same counts, the results for `Cc1ccc(-n2cc(-c3nc4ccccc4c(=O)[nH]3)nn2)cc1` are 3100 nM, “Non-Toxic” and more than 82.4 µM.
For `O=c1[nH]c(-c2cn(-c3ccc(Cl)cc3)nn2)nc2ccccc12`, the IC50 in data set [1] came to 1920 nM. The Activity entry in data set [2] is reported as “Non-Toxic”. For the same compound, in data set [3], the MIC amounted to 77.2 µM (≈ 25 µg/mL).
Take `CO[C@H]1/C=C/O[C@@]2(C)Oc3c(C)c(O)c4c(O)c(c(/C=N/N5CCN(C)CC5)c(O)c4c3C2=O)NC(=O)/C(C)=C\C=C\[C@H](C)[C@H](O)[C@@H](C)[C@@H](O)[C@@H](C)[C@H](OC(C)=O)[C@@H]1C` [RIFAMPIN]: the minimal inhibitory concentration (MIC) in data set [3] was found to be 0.13 µM (≈ 0.107 µg/mL).
For the compound `COc1ccc(-n2cc(-c3nc4ccccc4c(=O)[nH]3)nn2)cc1`, the IC50 in data set [1] turned out to be 2630 nM. Further, the MIC in data set [3] came to 19.6 µM (≈ 6.25 µg/mL). In addition, the inhibition at 78.29 µM in data set [5] was 24.3%.
For `O=c1[nH]c(-c2cn(-c3cccc(Cl)c3)nn2)nc2ccccc12`, the IC50 in data set [1] was found to be 2780 nM. Moreover, in data set [2], the Activity entry is “Non-Toxic”. The MIC in data set [3] was more than 77.2 µM.
On the same counts, the results for `CCc1ccc(-n2cc(-c3nc4ccccc4c(=O)[nH]3)nn2)cc1` are 3250 nM, “Non-Toxic” and 78.8 µM (≈ 25 µg/mL).
On the same counts, the results for `O=c1[nH]c(-c2cn(-c3ccc(F)cc3)nn2)nc2ccccc12` are 1950 nM, “Non-Toxic” and more than 81.4 µM.
In the case of `C=C[C@H]1CN2CC[C@H]1C[C@H]2[C@H](O)c1ccnc2ccc(OC)cc12` [QUININE], in data set [1], the IC50 turned out to be 826 nM.
Take `CC[C@@H](CO)NCCN[C@@H](CC)CO` [ETHAMBUTOL]: the MIC in data set [3] stood at 7.64 µM (≈ 1.56 µg/mL).
`O=c1[nH]c(-c2cn(-c3ccccc3F)nn2)nc2ccccc12`: the IC50 in data set [1] amounted to 2210 nM. Also, in data set [6], the inhibition at 81.35 µM came out at 27.2%. The MIC in data set [3] turned out to be 40.7 µM (≈ 12.5 µg/mL).
